{
  "source": "patent US7091183B1",
  "about": "(Boston Medical Center Corporation, priority 1996, dated 2006)",
  "key": {"rat GIP receptor [1]": {"biological_target": "T1, rat GIP receptor (Rattus norvegicus, UniProt P43219)", "T1 construct": "expressed in transfected cells; host or cells: L cells (LGIPR2), also carrying a VIP-promoter/lacZ cAMP reporter", "T1 sequence (P43219 19-455)": "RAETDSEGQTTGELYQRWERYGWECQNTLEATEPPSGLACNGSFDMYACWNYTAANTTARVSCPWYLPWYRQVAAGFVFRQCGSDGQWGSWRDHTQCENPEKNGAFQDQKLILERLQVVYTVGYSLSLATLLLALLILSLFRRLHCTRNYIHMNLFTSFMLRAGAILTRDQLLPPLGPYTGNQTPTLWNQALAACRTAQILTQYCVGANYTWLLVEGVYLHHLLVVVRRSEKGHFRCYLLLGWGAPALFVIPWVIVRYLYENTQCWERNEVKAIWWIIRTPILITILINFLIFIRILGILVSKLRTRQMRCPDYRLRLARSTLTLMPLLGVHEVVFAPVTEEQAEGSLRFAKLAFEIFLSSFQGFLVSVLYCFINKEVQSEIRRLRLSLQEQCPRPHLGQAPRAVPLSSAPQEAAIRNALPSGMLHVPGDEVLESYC", "experiment": "cAMP-dependent β-galactosidase production in LGIPR2 cells (agonist activity)", "format": "cell-based", "details": "for stimulation of cAMP-dependent β-galactosidase production (versus GIP (1–42) / above control levels): 10^−8 M peptide, 4 h; for β-gal level stimulated by peptide alone: FIG. 1B", "description": "LGIPR2 cells are stably transfected with a cAMP-dependent promoter from the VIP gene fused to the bacterial lac Z gene. When intracellular cAMP increases within these cells, lac Z gene transcription is activated, resulting in the accumulation of its product, β-galactosidase. The measurement of β-galactosidase in this system provided a convenient, inexpensive, and nonradioactive method for detecting changes in the levels of intracellular cAMP. […] The medium was then removed and wells rinsed once with phosphate-buffered saline (PBS). The plates were then blotted briefly and frozen overnight at −70° C., and, after the addition of chlorophenol red-β-D-galactopyranoside, accumulated β-galactosidase was detected using a calorimetric assay, as described previously (Usdin, et al., 1993, Endocrinology, 133:2861–2870). […] Natl. Acad. Sci. USA, 90:1992–1996)."}, "rat GIP receptor [2]": {"biological_target": "T1, rat GIP receptor", "experiment": "Inhibition of GIP (1–42)-stimulated cAMP-dependent β-galactosidase production in LGIPR2 cells", "format": "cell-based", "details": "10^−8 M GIP (1–42) plus fragment at 10^−8 M or 10^−6 M, 4 h", "description": "LGIPR2 cells are stably transfected with a cAMP-dependent promoter from the VIP gene fused to the bacterial lac Z gene. When intracellular cAMP increases within these cells, lac Z gene transcription is activated, resulting in the accumulation of its product, β-galactosidase. The measurement of β-galactosidase in this system provided a convenient, inexpensive, and nonradioactive method for detecting changes in the levels of intracellular cAMP.\nLGIPR2 cells were grown in Dulbecco's Modified Eagle's Medium (DMEM) containing 4.5 g/L of glucose and 10% fetal calf serum. For each assay, 10^5 cells/well were seeded onto 24-well plates. After incubation overnight, peptides were added in various concentrations to the wells in the absence of 3-isobutyl-methylxanthine (IBMX) for 4 h, at which time maximal stimulation of β-galactosidase was determined. The medium was then removed and wells rinsed once with phosphate-buffered saline (PBS). The plates were then blotted briefly and frozen overnight at −70° C., and, after the addition of chlorophenol red-β-D-galactopyranoside, accumulated β-galactosidase was detected using a calorimetric assay, as described previously (Usdin, et al., 1993, Endocrinology, 133:2861–2870).\nValues are expressed as the mean±SE of quadruplicate measurements."}, "fasted anesthetized rats": {"tested_on": "fasted anesthetized rats", "experiment": "Intravenous infusion of peptides in fasting anesthetized rats, plasma insulin", "format": "in vivo, rat", "details": "for plasma insulin level after infusion: 30 min i.v. infusion"}, "rats": {"tested_on": "rats", "details": "exendin-treated rats, cited from earlier work"}, "GIP receptor [3]": {"tested_on": "GIP receptor", "details": "cited from earlier work"}, "[4]": {"details": "in vivo; cited from earlier work"}, "GIP receptor [5]": {"biological_target": "T2, GIP receptor (Mus musculus, UniProt Q0P543)", "T2 construct": "host or cells: βTC3 cells (endogenous receptor)", "T2 sequence (Q0P543 19-460)": "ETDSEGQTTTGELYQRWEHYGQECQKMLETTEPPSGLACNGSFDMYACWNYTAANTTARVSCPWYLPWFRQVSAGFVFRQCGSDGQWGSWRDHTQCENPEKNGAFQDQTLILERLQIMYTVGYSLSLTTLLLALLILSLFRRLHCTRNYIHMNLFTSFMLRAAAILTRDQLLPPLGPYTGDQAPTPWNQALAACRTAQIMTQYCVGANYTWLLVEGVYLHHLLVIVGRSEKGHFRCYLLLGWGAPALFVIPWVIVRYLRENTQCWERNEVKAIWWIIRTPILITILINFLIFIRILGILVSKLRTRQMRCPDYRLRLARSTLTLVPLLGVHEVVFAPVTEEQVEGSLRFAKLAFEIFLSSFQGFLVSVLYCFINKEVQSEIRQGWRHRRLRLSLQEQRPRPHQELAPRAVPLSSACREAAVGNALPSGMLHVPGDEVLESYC", "details": "βTC3 cells; cited from earlier work"}},
  "note": "“And” between values parts separate entries of the source, which are not always exact repeats. Equal entries are not always repeated. Where two headings read alike, the source gives them in different places. Where no end group is shown, it is not given here.",
  "data": [
    {"compound": "GIP (10–30)-NH2 (YSIAMDKIRQQDFVNWLLAQK-NH2; listed as Rattus norvegicus)", "values": [
      {"measurement": "stimulation of cAMP-dependent β-galactosidase production (versus GIP (1–42) / above control levels)", "setting": "rat GIP receptor [1]", "value": "partial agonist activity"},
      {"measurement": "β-gal level stimulated by peptide alone", "setting": "rat GIP receptor [1]", "value": 0.39, "unit": "O.D."},
      {"measurement": "antagonism of the cAMP stimulatory effect of GIP (1–42)", "setting": "rat GIP receptor [2]", "value": "an antagonist, albeit a weak one"}
    ]},
    {"compound": "CC[C@H](C)[C@H](NC(=O)[C@H](Cc1ccccc1)NC(=O)[C@H](CCC(=O)O)NC(=O)[C@H](CCCCN)NC(=O)[C@H](C)NC(=O)[C@H](C)NC(=O)[C@H](CCC(N)=O)NC(=O)CNC(=O)[C@H](CCC(=O)O)NC(=O)[C@H](CC(C)C)NC(=O)[C@H](Cc1ccc(O)cc1)NC(=O)[C@H](CO)NC(=O)[C@H](CO)NC(=O)[C@@H](NC(=O)[C@H](CC(=O)O)NC(=O)[C@H](CO)NC(=O)[C@@H](NC(=O)[C@H](Cc1ccccc1)NC(=O)[C@@H](NC(=O)CNC(=O)[C@H](CCC(=O)O)NC(=O)[C@H](C)NC(=O)[C@@H](N)Cc1c[nH]cn1)[C@@H](C)O)[C@@H](C)O)C(C)C)C(=O)N[C@@H](C)C(=O)N[C@@H](Cc1c[nH]c2ccccc12)C(=O)N[C@@H](CC(C)C)C(=O)N[C@H](C(=O)N[C@@H](CCCCN)C(=O)NCC(=O)N[C@@H](CCCNC(=N)N)C(N)=O)C(C)C", "note": "[GLP-1, glucagon like peptide-1 (7–36)]", "values": [
      {"measurement": "plasma insulin level at 30 min", "setting": "fasted anesthetized rats; GLP-1 0.4 nmol/kg infusion", "value": "50.3±3.7", "unit": "μIU/ml"}
    ]},
    {"compound": "N=C(N)NCCC[C@H](N)C(=O)O", "note": "[arginine]", "values": [
      {"measurement": "plasma insulin level at 30 min", "setting": "fasted anesthetized rats; arginine 375 mg/kg infusion", "value": "69.7±5.8", "unit": "μIU/ml"}
    ]},
    {"compound": "GIP (21–30)-NH2 (DFVNWLLAQK-NH2)", "values": [
      {"measurement": "stimulation of cAMP-dependent β-galactosidase production (versus GIP (1–42) / above control levels)", "setting": "rat GIP receptor [1]", "value": "none"}
    ]},
    {"compound": "GIP (31–44) (GKKNDWKHNLTQRE; listed as Rattus norvegicus)", "values": [
      {"measurement": "stimulation of cAMP-dependent β-galactosidase production (versus GIP (1–42) / above control levels)", "setting": "rat GIP receptor [1]", "value": "none"}
    ]},
    {"compound": "GIP (16–30)-NH2 (KIRQQDFVNWLLAQK-NH2; listed as Rattus norvegicus)", "values": [
      {"measurement": "stimulation of cAMP-dependent β-galactosidase production (versus GIP (1–42) / above control levels)", "setting": "rat GIP receptor [1]", "value": "did not mimic GIP and none"},
      {"measurement": "antagonism of the cAMP stimulatory effect of GIP (1–42)", "setting": "rat GIP receptor [2]", "value": "neither did they inhibit GIP-dependent effects"}
    ]},
    {"compound": "exendin (9–39)", "values": [
      {"measurement": "plasma glucose level", "setting": "rats; increased from 7.5", "value": 8.7, "unit": "mmol/L"},
      {"measurement": "reduction of postprandial insulin release", "setting": "rats", "value": "50% and 48%"},
      {"measurement": "reduction of postprandial insulin release", "setting": "rats; listed as exendin", "value": "~50", "unit": "%"},
      {"measurement": "GIP binding to its receptor", "setting": "GIP receptor [3]", "value": "displaced GIP binding from its receptor"},
      {"measurement": "cAMP generation in response to GIP stimulation", "setting": "GIP receptor [3]", "value": "inhibits cAMP generation"},
      {"measurement": "reduction of insulin release following intraduodenal glucose infusion", "setting": "[4]", "value": 70, "unit": "%"}
    ]},
    {"compound": "CC[C@H](C)[C@H](NC(=O)[C@H](CO)NC(=O)[C@H](Cc1ccc(O)cc1)NC(=O)[C@H](CC(=O)O)NC(=O)[C@H](CO)NC(=O)[C@@H](NC(=O)[C@H](Cc1ccccc1)NC(=O)[C@@H](NC(=O)CNC(=O)[C@H](CCC(=O)O)NC(=O)[C@H](C)NC(=O)[C@@H](N)Cc1ccc(O)cc1)[C@@H](C)O)[C@@H](C)CC)C(=O)N[C@@H](C)C(=O)N[C@@H](CCSC)C(=O)N[C@@H](CC(=O)O)C(=O)N[C@@H](CCCCN)C(=O)N[C@H](C(=O)N[C@@H](CCCNC(=N)N)C(=O)N[C@@H](CCC(N)=O)C(=O)N[C@@H](CCC(N)=O)C(=O)N[C@@H](CC(=O)O)C(=O)N[C@@H](Cc1ccccc1)C(=O)N[C@H](C(=O)N[C@@H](CC(N)=O)C(=O)N[C@@H](Cc1c[nH]c2ccccc12)C(=O)N[C@@H](CC(C)C)C(=O)N[C@@H](CC(C)C)C(=O)N[C@@H](C)C(=O)N[C@@H](CCC(N)=O)C(=O)N[C@@H](CCCCN)C(=O)NCC(=O)N[C@@H](CCCCN)C(=O)N[C@@H](CCCCN)C(=O)N[C@@H](CC(N)=O)C(=O)N[C@@H](CC(=O)O)C(=O)N[C@@H](Cc1c[nH]c2ccccc12)C(=O)N[C@@H](CCCCN)C(=O)N[C@@H](Cc1c[nH]cn1)C(=O)N[C@@H](CC(N)=O)C(=O)N[C@@H](CC(C)C)C(=O)N[C@H](C(=O)N[C@@H](CCC(N)=O)C(=O)O)[C@@H](C)O)C(C)C)[C@@H](C)CC", "note": "[GIP, glucose-dependent insulinotropic polypeptide]", "values": [
      {"measurement": "β-gal level stimulated by peptide alone", "setting": "rat GIP receptor [1]", "value": "0.95±0.04", "unit": "O.D."},
      {"measurement": "concentration giving maximum effect on β-galactosidase production", "setting": "rat GIP receptor [1]; at 4 h", "value": "10^−8 M"},
      {"measurement": "plasma insulin level after infusion", "setting": "fasted anesthetized rats; GIP 0.5 nmol/kg", "value": "43.5±2.7", "unit": "μIU/ml"},
      {"measurement": "plasma insulin level after infusion", "setting": "fasted anesthetized rats; GIP 1.0 nmol/kg", "value": "61.6±4.2", "unit": "μIU/ml"},
      {"measurement": "plasma insulin level after infusion", "setting": "fasted anesthetized rats; GIP 1.5 nmol/kg", "value": "72.4±3.5", "unit": "μIU/ml"}
    ]},
    {"compound": "GIP (1–30)-NH2 (YAEGTFISDYSIAMDKIRQQDFVNWLLAQK-NH2; listed as Rattus norvegicus)", "values": [
      {"measurement": "stimulation of cAMP-dependent β-galactosidase production (versus GIP (1–42) / above control levels)", "setting": "rat GIP receptor [1]", "value": "nearly equipotent"},
      {"measurement": "binding of GIP (1–42) to the GIP receptor", "setting": "GIP receptor [5]", "value": "competitively inhibited binding"}
    ]}
  ]
}
